# How the values were obtained:
# [1] = plasma kinetics of TMC278 in the beagle dog after single intramuscular administration of aqueous 30% DMA/50% PEG400 solution; assay type: in vivo; conditions: single IM 2.5 mg/kg
# Protocol: The study was performed in order to study the plasma kinetics and the absolute bioavailability of TMC278 in the beagle dog after single intramuscular administration (IM) of an aqueous 30% dimethylacetamide (DMA)/50% polyethylene glycol 400 (PEG400) solution of TMC278 at 2.5 mg/kg. The dogs were dosed IM.
# Two male beagle dogs (dog No. 16924 and 16854), approximately 3 years old and weighing between 11 and 12 kg at the start of the experimental phase, were used in the present experiment. The dogs were dosed intramuscularly at 0.1 ml/kg body weight by injecting the formulation in the left (dog No. 16924) or right (dog No. 16854) m. biceps femoris. […]
# Blood samples (4 ml on EDTA) were taken from a jugular vein from the dogs at 0 (=predose), 0.5, 1, 2, 4, 8, 24, 32, 48, 72, 96, 144, 192, 240 and 312 h after dose administration. […] These samples were analogously processed and analysed.
# On day 232 post-dose, a biopsy was performed (dog No. 16924 only) on the iliac lymph node (at the side of injection), on a muscle from the non-injected hind leg and on a muscle at the side of injection after ultrasonographic examination. […] This sample was processed and analysed similarly to the other blood samples.
# The concentration of TMC278 in dog plasma was determined by a qualified research LC-MS/MS method after solid phase extraction (SPE). […]
# [2] = system: wild type HIV and mutated variants; conditions: cited from earlier work
structure (smiles),measurement,setting,value
"Cc1cc(C=CC#N)cc(C)c1Nc1ccnc(Nc2ccc(C#N)cc2)n1 [TMC278, 4-[[4-[[4-(2-cyanoethenyl)-2,6-dimethylphenyl]amino]-2-pyrimidinyl]amino]benzonitrile]","t1/2,24-72h",[1]; mean (n=2),63.1 h
same,course of plasma levels after 72 h post-dose,[1]; 72 h up to 312 h post-dose,remained fairly constant or slightly increased
same,activity against wild type HIV and many of its mutated variants,[2],pronounced activity

# Reference: patent USRE50189E1, “Long term treatment of HIV-infection with TMC278” (Janssen Sciences Ireland Unlimited Company, priority 2006, dated 2024)
